Data published in patent US9351986B2, “Calicheamicin derivative-carrier conjugates” (priority 2002, dated 2016).
Several values for one entry are separate records, joined by “and”; a condition that tells them apart may be missing. Equal values may be shown once.

Key:
[1] = system: CD22− CD33+ HL-60 leukemia cells; experiment: Flow cytometry binding to HL-60 leukemia cells; conditions: data not shown
Description: (§1) Purified human polyclonal IgG1 and IgG4 were also used as negative controls.

[2] = system: CD22 on B cells; experiment: Species specificity of CD22 recognition on B cells; type: binding, human, murine, rat, canine, porcine, cynomolgus and rhesus; conditions: data not shown
Description: as §1

[3] = system: RAMOS B-cell lymphoma; experiment: RAMOS B-cell lymphoma xenograft growth; type: in vivo; conditions: FIG. 18
Description: In Vivo Cytotoxicity. CMC-544 made by the CMC-544 process was further evaluated in B-cell lymphoma xenografts. In these studies, two B-cell lymphoma tumors, RAMOS and RL, were used. RL lymphoma is a non-Burkitt's NHL-derived cell line whereas RAMOS was originally derived from a Burkitt's lymphoma.

[4] = system: RL NHL xenografts; experiment: RL NHL xenografts staged to 300-400 mg in nude mice; type: in vivo; conditions: for MEAN RELATIVE TUMOR GROWTH: tumor mass at Week 3/day 1
Description: Similar studies were carried out using the RL lymphoma model. […] CMC-544 in a dose-dependent manner caused tumors to regress over a 3-week time frame. The minimally effective dose of CMC-544 in the RL lymphoma model was established from statistical analyses of these studies to be 20 μg/kg based on calicheamicin content. There were no deaths in any of these three studies.
The observed anti-tumor efficacy was dose-dependent as expected and there was no difference in the efficacies of either of the two CMC-544 preparations. […] However, it should be emphasized that for each dose of conjugated calicheamicin, the quantity of antibody protein administered in the form of a conjugate was four times higher for CMC-544 made by the CMA-676 process versus that made by the CMC-544 process. Since the calicheamicin content of the targeted conjugate is primarily responsible for causing the anti-tumor effect, it is possible to deliver the required quantity of calicheamicin via the conjugate made by the new procedure using much smaller quantities of the targeting antibody. The increased loading of the conjugate made by the CMC-544 process is, in effect, due to the lack of significant amounts of the low conjugated fraction (LCF).

[5] = system: large RAMOS lymphoma; experiment: Large established RAMOS lymphoma xenografts; type: in vivo, nude mice; conditions: days 1, 5 and 9
Description: (§2) The ability of CMC-544 made by the new procedure to inhibit growth of large established B-cell lymphoma xenografts using both the RAMOS and RL lymphoma models was also investigated. The tumors were allowed to grow and staged to 1.5 or 2 g of tumor mass after which CMC-544 or an isotype-matched negative control conjugate (CMA-676) were administered intraperitoneally at the dose of 160 μg/kg of conjugated calicheamicin keeping the original schedule of dosing on days 1, 5 and 9.
The same schedule of dosing was shown earlier to cause long lasting regression of small staged tumors (see Table 6).

[6] = system: RL lymphoma; experiment: Large established RL lymphoma xenografts; type: in vivo, mice
Description: as §2
A similar experiment using CMC-544 was carried out in the RL lymphoma model. Intraperitoneal administration of CMC-544 at a dose of 160 μg/kg on a similar schedule as described before caused >90% regression of the pre-existing mass of RL lymphoma within 30 days. […] In a small number of studies not shown here, RL lymphomas that re-grew sporadically after the initial CMC-544-induced regression were retreated with CMC-544 again. […] Thus, the treatment with CMC-544 can be effective against both small and large masses of B-cell lymphomas with the potential for repeat therapy.

[7] = system: Ramos cells; experiment: Ramos cell viability, CMC-544 with and without rituximab, 96 hours; type: cell-based; conditions: CMC-544 alone, calicheamicin DMH
Description: After 96 hours, cell viability was measured by propidium iodide exclusion analyzed by flow cytometry. […] The statistical analysis was conducted using the PROBIT procedure in SAS version 8.2.

[8] = system: Ramos cells; experiment: Disseminated RAMOS B lymphoma in SCID mice, developing model; type: in vivo; conditions: Table 8; conjugates 160 μg/kg, rituximab 20 mg/kg ip Q4Dx3 from day 3
Description: (§3) Male SCID mice (CB17 SCID), 20-25 g, were injected with […] through the tail vein (0.2 ml). […] For the day 3 treatment schedule, mice were dosed on days 3, 7, and 11. For the day 9 treatment schedule, mice were dosed on days 9, 13 and 17. […] Mice were monitored daily for the presence of hind limb paralysis at which time they were killed. Seven to 10 mice per treatment group were used. The group average survival time (±SD), median, minimum, and maximum survival times were all calculated. The difference in survival distribution between groups was determined by using a nonparametric Log-rank test with significance reported at the 0.05 level. The survival curves were constructed using the Kaplan-Meier method.
(§4) The initial study examined the effect of two different dosing schedules on survival times of the SCID mice with the disseminated lymphoma. The first study looked at initiating drug dosing 3 days after the tumor cells were injected intravenously (developing model), while the second study delayed drug dosing until 9 days post tumor cell injection (established model).

[9] = system: Ramos cells; experiment: Disseminated RAMOS B lymphoma in SCID mice, established model; type: in vivo
Description: as §3
as §4, with “model). […]” for “model).”

[10] = system: RL B lymphoma xenograft; experiment: Subcutaneous RL B lymphoma xenograft, CMC-544 versus rituximab and CHOP; type: in vivo, Balb/c nude mice; conditions: IP, Q4Dx3, 160 μg/kg calicheamicin equivalents
Description: Female, athymic nude mice, 18-22 g, were given total body irradiation (400 rads). […] Three days after irradiation, mice were injected subcutaneously with 107 RL cells in […] ™ (Collaborative Biomedical Products, Belford, Mass., diluted 1:1 in RPMI medium) in the dorsal, right flank. […] The initial day of drug administration was considered day 1. Two additional doses were given on days 5 and 9 (treatment=q4Dx3). […] Tumors were measured at least once a week and calculated as tumor mass (g)=0.5 (tumor width/2) (tumor length). Group means SEM were calculated and compared to the vehicle-treated group for statistical significance using multiple T-tests. Group means were recorded up to 50 days or until either a mouse died (which disrupted the group mean) or the tumor grew too large (>3.5 g) and the mouse had to be euthanized. […] The number of tumor free mice at the end of each study for each treatment group was also recorded. […]
Individual components of the CHOP regimen were used at their respective maximum tolerated doses assessed in nude mice (data not reported) and were as follows: Cyclophosphamide (C) 40 mg/kg IP, doxorubicin (H) 3.3 mg/kg IP, vincristine (O) 0.5 mg/kg IP, and prednisone (P) 0.2 mg/kg PO. […]

[11] = system: Fc-CD22; experiment: BIACORE blocking of murine anti-CD22 mAbs by G5/44 on immobilized Fc-CD22; type: binding; conditions: Fc-CD22 saturated with G5/44 (100 μg/ml), before murine mAb
Sequence of Fc-CD22 (P20273 20-416 limits assumed): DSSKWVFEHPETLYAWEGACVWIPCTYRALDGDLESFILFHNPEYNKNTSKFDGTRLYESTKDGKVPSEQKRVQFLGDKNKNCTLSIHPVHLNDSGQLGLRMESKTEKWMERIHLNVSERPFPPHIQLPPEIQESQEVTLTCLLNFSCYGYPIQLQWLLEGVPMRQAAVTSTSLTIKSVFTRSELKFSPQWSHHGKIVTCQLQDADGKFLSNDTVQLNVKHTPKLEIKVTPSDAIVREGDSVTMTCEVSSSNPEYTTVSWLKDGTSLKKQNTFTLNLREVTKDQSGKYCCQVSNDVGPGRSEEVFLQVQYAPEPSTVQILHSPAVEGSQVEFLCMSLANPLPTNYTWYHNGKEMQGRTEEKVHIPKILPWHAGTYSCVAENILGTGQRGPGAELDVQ
Description: Whether or not G5/44 can inhibit the binding of murine mAbs of known specificity to CD22 was evaluated by BIACORE™ analysis using Fc-CD22 immobilized to a BIACORE™ CM5 chip. The surface plasmon resonance units (RU) obtained with and without prior saturation of the immobilized Fc-CD22 with G5/44 were compared. Biomolecular interaction analysis was performed using a BIACORE™ 2000. Antibodies were passed over a blank control surface (flowcell 1, serves as a control, no protein was coupled) and the test surface of Fc-CD22 (flowcell 2) immobilized on a CM5 sensor chip via amine coupling chemistry to a level of 9,042 RU. The resultant sensorgram was the response (RU) on flowcell 2 minus the response (RU) on flowcell 1. A second sensorgram was obtained by first saturating the flowcells with G5/44 (100 μg/ml) before the introduction of murine mAbs against CD22 that had been previously characterized for their binding. Immediately upon measuring the G5/44 response, murine anti-CD22 mAbs were individually perfused without removing G544. The second combined response generated due to the binding of murine anti-CD22 mAb to G5/44-coated CD22 was also recorded. If the murine antibody bound to CD22 at sites unrelated to those occupied by G5/44, then the combined responses would be additive. […]

[12] = Table 8, conjugates 160 μg/kg, rituximab 20 mg/kg ip Q4Dx3 from day 9
[13] = Table 9, high dose: CMC-544 160 μg/kg, rituximab 20 mg/kg, alone or combined
[14] = Table 10, high dose: CMC-544 160 μg/kg, rituximab 20 mg/kg, alone or combined
[15] = Table 10, low dose: CMC-544 40 μg/kg, rituximab 5 mg/kg, alone or combined
[16] = Table 10, medium dose: CMC-544 80 μg/kg, rituximab 10 mg/kg, alone or combined

In the case of “CMC-544: G5/44-NAc-gamma-calicheamicin DMH AcBut conjugate; monomeric calicheamicin derivative/humanized anti-CD22 antibody (G5/44)”, the “binding to HL-60 leukemia cells” value [1] was “neither CMC-544 nor G5/44 demonstrated any binding”, the “recognition of CD22 on B cells of different species” value [2] was “specifically recognizes CD22 on human B cells, but not on murine, rat, canine, porcine or primate (cynomolgus and rhesus) B cells” and the “inhibition of growth of RAMOS B-cell lymphoma” value [3] was “efficacious in inhibiting, in a dose-dependent manner, the growth of RAMOS B-cell lymphoma”. The “tumor regression at higher doses” value ([4]; 60-320 μg/kg) was “almost complete regression of RL lymphoma”, the “minimally effective dose in the RL lymphoma model” value ([4]; based on calicheamicin content, from statistical analyses of three studies) was 0.02 mg/kg and the “% T/C” value ([4]; calicheamicin dose 20 μg/kg) was 43%. The “MEAN RELATIVE TUMOR GROWTH” value ([4]; calicheamicin dose 20 μg/kg) was 2.87, the “% T/C” value ([4]; calicheamicin dose 40 μg/kg) was 20% and the “MEAN RELATIVE TUMOR GROWTH” value ([4]; calicheamicin dose 40 μg/kg) was 1.34. The “% T/C” value ([4]; calicheamicin dose 60 μg/kg) was 9%, the “MEAN RELATIVE TUMOR GROWTH” value ([4]; calicheamicin dose 60 μg/kg) was 0.58 and the “% T/C” value ([4]; calicheamicin dose 80 μg/kg) was 8%. For the same substance, the “MEAN RELATIVE TUMOR GROWTH” value ([4]; calicheamicin dose 80 μg/kg) was 0.54, the “% T/C” value ([4]; calicheamicin dose 160 μg/kg) was 3% and the “MEAN RELATIVE TUMOR GROWTH” value ([4]; calicheamicin dose 160 μg/kg) was 0.21. For the same substance, the “% T/C” value ([4]; calicheamicin dose 320 μg/kg) was 1%, the “MEAN RELATIVE TUMOR GROWTH” value ([4]; calicheamicin dose 320 μg/kg) was 0.10 and the deaths ([4]; three independent experiments, 20-320 μg/kg) was “no deaths”. The “tumor-free mice by day 20” value ([5]; 160 μg/kg conjugated calicheamicin ip, tumors staged to 1.5 or 2 g) was 3 out of 4, the “re-growth of regressed lymphoma up to day 50” value ([5]; 160 μg/kg ip) was “did not indicate any re-growth” and the “mice with re-growth of the tumors by day 45” value ([6]; 160 μg/kg ip) was 2. The “regression of the pre-existing mass of RL lymphoma” value ([6]; 160 μg/kg ip, within 30 days) was greater than 90%, the “response of re-grown RL tumors to a second course” value ([6]; studies not shown) was “still responsive to the second course of the treatment with CMC-544 and regressed again” and the “median inhibitory concentration (IC50)” value [7] was 0.029 ng/mL. The “Average Survival Time” value [8] was 41 days and 41.0 days, the “Maximum Survival Time” value [8] was 60.0 days and the “Median Survival Time” value [8] was 38.0 days. The “Minimum Survival Time” value [8] was 32.0 days, the “mice still surviving at 125 days” value ([9]; CMC-544 40 μg/kg) was 90% and the “Average Survival Time” value [9, 12] was 83.5 days. The “Median Survival Time” value [9, 12] was 76.5 days, the “Minimum Survival Time” value [9, 12] was 34.0 days and the “Maximum Survival Time” value [9, 13] was greater than 100.0 days. For the same substance, the “Median Survival Time” value [9, 13] was 34.5 days, the “Minimum Survival Time” value [9, 13] was 27.0 days and the “Average Survival Time” value ([9]; Table 9 initial combination study, high dose: CMC-544 160 μg/kg, rituximab 20 mg/kg, alone or combined) was 58.5 days. The “Average Survival Time” value [9, 14] was 85 days and 85.22 days, the “Maximum Survival Time” value [9, 14] was 125.00 days and the “Median Survival Time” value [9, 14] was 82.00 days. The “Minimum Survival Time” value [9, 14] was 35.00 days, the “Average Survival Time” value [9, 15] was 118.90 days and the “Maximum Survival Time” value [9, 15] was 125.00 days. For the same substance, the “Median Survival Time” value [9, 15] was 125.00 days, the “Minimum Survival Time” value [9, 15] was 64.00 days and the “Average Survival Time” value [9, 16] was 118.22 days. The “Maximum Survival Time” value [9, 16] was 125.00 days, the “Median Survival Time” value [9, 16] was 125.00 days and the “Minimum Survival Time” value [9, 16] was 71.00 days. For the same substance, the antitumor effect [10] was “complete and lasted throughout the experimental period”.

In the case of “5/44: murine anti-CD22 monoclonal antibody, the murine parent of G5/44”, the “Response 1 with G544” value [11] was 725.1 RU.
